Patent publication US7214535B2, “Glyphosate-tolerant 5-enolpyruvylshikimate-3-phosphate synthase and the gene encoding the same” (Peking University, priority 2002, dated 2007)

Tested on: strain 4G-1
Assay: Growth of isolated strain 4G-1 on media comprising glyphosate or Ampicillin
Format: cell-based, Pseudomonas putida
Experimental: The sample were taken from neighborhood of a glyphosate producing factory in Hebei Province, China, and were diluted and spread on mediums comprising glyphosate. A total of 48 strains are isolated with high tolerance and degradation ability to glyphosate. One strain of them, 4G-1, is able to grow on a medium with 400 mM glyphosate, and is resistant to 100 mg/L Ampicillin. Said strain is selected for further studies.
The resulting products are purified by a purification method for PCR product, and are ligated to a T vector (Takara, Dalian) according to the instruction of manufacturer Takara to obtain plasmid pKU2000. […] Using BLAST software and BLASTP 2.2.2 [Dec. […] Thus, strain 4G-1 is thought to be P. putida, and is designated as P. putida 4G-1 (abbreviated as P. P4G-1). Said strain is deposited on Apr. 30, 2002 at the Chinese General Microbiological Culture Centre (CGMCC) (ZhongGuan Cun, Beijing, China) with the accession number CGMCC 0739.

Compound: CC1(C)S[C@@H]2[C@H](NC(=O)[C@H](N)c3ccccc3)C(=O)N2[C@H]1C(=O)O [Ampicillin]
- resistance of strain 4G-1 to Ampicillin (100 mg/L Ampicillin): resistant

Compound: O=C(O)CNCP(=O)(O)O [glyphosate, N-phosphylmethyl glycine]
- growth of strain 4G-1 on medium with glyphosate (400 mM glyphosate): able to grow
